One data set concerns MRC5. Nature of the data set: Antiproliferative activity against human MRC5 cells after 72 hrs by MTT assay. Type of data set: cell-based. To be noted: MRC5, 72 h.
Data set [1] can be described thus: Partition coefficient, log P of the compound. Type of data set: physicochemical. The following applies: octanol/water.
In data set [2] the test system is SK-N-MC. Nature of the data set: cells. The following applies: Homo sapiens, 72 h.
Description: Antiproliferative activity against human SK-N-MC cells after 72 hrs by MTT assay
Data set [3] concerns SK-N-MC. The data set is described as follows: Effect on iron release in SK-N-MC cells. The format is functional, Homo sapiens.
In data set [4] the test system is SK-N-MC. Nature of the data set: Inhibition of iron uptake from transferrin in SK-N-MC cells at 50 uM relative to control. Type of data set: functional, Homo sapiens. More on the design: scale not given: the % may be the effect or the level left.

The structures appear in SMILES notation. pIC50: −log10 of the molar value. Where only a bound is given, the exact number is not on record here.

What is called pIC50 is the negative decadic logarithm of the IC50, by convention in mol/L. One may read the logP as a log measure of how a compound divides between an organic and an aqueous phase.

On to `CN(C)C(=S)N/N=C(\c1ccccc1)c1ccccn1`, for which the pIC50 was < 5.20 in the data set with MRC5 and 8.40 in the data set with SK-N-MC [2]. This compound also yielded a logP in data set [1] of 1.29.

`NC(=S)N/N=C(\c1ccccc1)c1ccccn1`: the Activity with SK-N-MC [3] is on record as 23%. The compound further displayed a logP in data set [1] of 1.92. In addition, the pIC50 in the data set on SK-N-MC [2] is 5.33.

On to `CNC(=S)N/N=C(\c1ccccc1)c1ccccn1`, for which the pIC50 is < 5.20 in the data set with MRC5 and 8.40 with SK-N-MC [2]. Also, in data set [1], the logP was found to be 0.74.

Compound `CN(C)C(=S)NN=C(c1ccccn1)c1ccccn1` had a pIC50 in the data set on SK-N-MC [2] of 9.00.

In turn, `O=C(N/N=C/c1c(O)ccc2ccccc12)c1ccncc1` had a pIC50 with SK-N-MC [2] of 6.15. This compound also yielded an Activity with SK-N-MC [4] of 9%.

For `NC(=S)N/N=C(\c1cccc([N+](=O)[O-])c1)c1ccccn1`, the Activity was 43% in the data set on SK-N-MC [3] and 7% with SK-N-MC [4]. The same compound registered a logP in data set [1] of 1.9. Besides, the negative-log IC50 (pIC50) in the data set on SK-N-MC [2] was 5.42.

In data set [1], `CNC(=S)N/N=C(\c1cccc([N+](=O)[O-])c1)c1ccccn1` gave a logP of 2.14. In the data set on SK-N-MC [2], the pIC50 was 6.89. The compound further came in with an Activity with SK-N-MC [4] of 8%.

As for `CCNC(=S)N/N=C(\c1cccc([N+](=O)[O-])c1)c1ccccn1`, the pIC50 is 5.64 in the data set on MRC5 and 7.85 with SK-N-MC [2]. For the same compound, the logP in data set [1] stood at 2.53.

For the compound `C=CCNC(=S)N/N=C(\c1ccccc1)c1ccccn1`, the results for the pIC50 with MRC5 and with SK-N-MC [2] were < 5.20 and 8.40, respectively. For the same compound, the logP in data set [1] was 2.69.

On to `C=CCNC(=S)N/N=C(\c1cccc([N+](=O)[O-])c1)c1ccccn1`, for which the pIC50 in the data set with MRC5 is 5.62; in the data set on SK-N-MC [2], 7.89. This compound had a logP in data set [1] of 1.7. In the data set with SK-N-MC [4], the Activity was determined as 11%.

`S=C(N/N=C(\c1ccccc1)c1ccccn1)Nc1ccccc1`: the figures for the pIC50 with MRC5 and in the data set with SK-N-MC [2] were 5.73 and 8.30, respectively. The compound further had a logP in data set [1] of 1.92.

In the case of `CCNC(=S)N/N=C(\c1ccccc1)c1ccccn1`, the figures for the pIC50 with MRC5 and in the data set on SK-N-MC [2] were < 5.20 and 8.70, respectively. The compound further showed a logP in data set [1] of 4.01.

Turning to `CC(=O)N(O)CCCCCNC(=O)CCC(=O)N(O)CCCCCNC(=O)CCC(=O)N(O)CCCCCN` [DEFEROXAMINE], the Activity in the data set on SK-N-MC [3] is given as 7%. This compound also gave a pIC50 in the data set with SK-N-MC [2] of 5.35.

In the case of `Cc1ncc(CO)c(/C=N/NC(=O)c2ccncc2)c1O` [PYRIDOXAL ISONICOTINOYL HYDRAZONE], the Activity in the data set with SK-N-MC [4] turned out to be 21%.

Take `NC(=S)N/N=C/c1ncccc1N` [TRIAPINE]: the pIC50 in the data set on SK-N-MC [2] was 6.59.

The record behind these values is ChEMBL document CHEMBL1146224, “Design, synthesis, and characterization of novel iron chelators: structure-activity relationships of the 2-benzoylpyridine thiosemicarbazone series and their 3-nitrobenzoyl analogues as potent antitumor agents” (J Med Chem, 2007).
